Measured values: ChEMBL document CHEMBL5053556, “Design, Synthesis, and Biological Evaluation of a Novel Series of Teriflunomide Derivatives as Potent Human Dihydroorotate Dehydrogenase Inhibitors for Malignancy Treatment” (J Med Chem, 2021)
≈ marks a conversion by molar mass, not a printed value. Values belong to the compound of their own block, whether it stands above or below them.

What was measured:
[1] = target: T1, Dihydroorotate dehydrogenase (quinone), mitochondrial (Homo sapiens, UniProt Q02127)
T1 sequence (Q02127 whole entry): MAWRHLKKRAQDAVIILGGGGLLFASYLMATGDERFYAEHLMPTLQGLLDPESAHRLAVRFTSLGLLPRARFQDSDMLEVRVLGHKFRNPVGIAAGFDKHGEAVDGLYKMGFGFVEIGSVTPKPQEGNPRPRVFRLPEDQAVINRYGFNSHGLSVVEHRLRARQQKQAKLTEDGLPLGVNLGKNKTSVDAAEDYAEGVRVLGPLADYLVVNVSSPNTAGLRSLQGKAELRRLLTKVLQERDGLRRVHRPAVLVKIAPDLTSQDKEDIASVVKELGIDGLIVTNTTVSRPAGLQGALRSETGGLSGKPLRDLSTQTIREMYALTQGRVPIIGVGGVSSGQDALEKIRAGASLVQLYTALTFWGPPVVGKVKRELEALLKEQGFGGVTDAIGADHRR
Description: Inhibition of human DHODH using dihydroorotate substrate preincubated for 30 mins followed by substrate addition by DCIP based microplate reader analysis

[2] = target: T1, Dihydroorotate dehydrogenase (quinone), mitochondrial; settings: dose 100.0 nM, time 30.0 min
[3] = tested on: Raji; experiment: Antiproliferative activity against human Raji cells assessed as cell growth inhibition incubated for 96 hrs by MTT assay; type: functional, cell-based
[4] = tested on: Mus musculus; experiment: Toxicity in NOD-SCID mouse xenografted with human Raji cells assessed as body weight loss at 1.5 mg/kg, po administered for 25 days; type: organism-based; settings: in vivo, 600 h, time 25 day
[5] = tested on: L02; experiment: cells; type: ADME, cell-based; settings: Homo sapiens, L02, 96 h
Description: Cytotoxicity against human L02 cells assessed as cell growth inhibition incubated for 96 hrs by MTT assay

[6] = tested on: Raji; experiment: animal or person; settings: Mus musculus, po, 600 h, read-out: TGI
Description: Antitumor activity against human Raji cells xenografted in NOD-SCID mouse assessed as tumor growth inhibition at 1.5 mg/kg, po administered for 25 days

[7] = Microsomal stability in human liver microsomes assessed as half life at 1 uM measured upto 120 mins in presence of NADPH by LC-MS analysis; type: ADME, Microsome
[8] = Microsomal stability in mouse liver microsomes assessed as half life at 1 uM measured upto 120 mins in presence of NADPH by LC-MS analysis; type: ADME, Microsome
[9] = tested on: Daudi; experiment: Antiproliferative activity against human Daudi cells assessed as cell growth inhibition incubated for 96 hrs by MTT assay; type: functional, cell-based
[10] = tested on: Mus musculus; experiment: Toxicity in NOD-SCID mouse xenografted with human Raji cells assessed as change in UREAL at 40 mg/kg, po administered for 25 days; type: organism-based; settings: in vivo, 600 h, time 25 day
[11] = Clearance in Sprague-Dawley rat at 5 mg/kg, iv measured after 48 hrs by LC-MS analysis; type: ADME, organism-based; settings: Sprague-Dawley, in vivo
[12] = in vitro; settings: human, Caco-2
Description: Apparent permeability across basolateral to apical side in human Caco-2 cells incubated for 90 mins by LC-MS analysis

[13] = tested on: SU-DHL-6; experiment: Antiproliferative activity against human SU-DHL-6 cells assessed as cell growth inhibition incubated for 96 hrs by MTT assay; type: functional, cell-based; settings: SU-DHL-6, 96 h
[14] = Acute toxicity in BALB/c mouse assessed as effect on kidney at 400 mg/kg, po measured on day 14 by H and E staining based assay; type: organism-based; settings: in vivo, 336 h, time 14 day
[15] = Half life in Sprague-Dawley rat at 5 mg/kg, iv measured after 48 hrs by LC-MS analysis; type: ADME, organism-based; settings: in vivo
[16] = Acute toxicity in BALB/c mouse assessed as effect on heart at 400 mg/kg, po measured on day 14 by H and E staining based assay; type: organism-based; settings: in vivo, 336 h, time 14 day
[17] = tested on: Mus musculus; experiment: Toxicity in NOD-SCID mouse xenografted with human Raji cells assessed as change in uric acid level at 40 mg/kg, po administered for 25 days; type: organism-based; settings: in vivo, 600 h, time 25 day
[18] = Plasma protein binding in rat at 10 uM incubated for 5 hrs by LC-MS analysis; type: ADME, cell-free; settings: read-out: PPB (converted)
[19] = Acute toxicity in BALB/c mouse assessed as effect on liver at 400 mg/kg, po measured on day 14 by H and E staining based assay; type: organism-based; settings: in vivo, 336 h, time 14 day
[20] = Cmax in Sprague-Dawley rat at 15 mg/kg, po measured after 48 hrs by LC-MS analysis; type: ADME, organism-based; design: dose 15 mg/kg, time 48 hrs, route po; settings: in vivo
[21] = Oral bioavailability in Sprague-Dawley rat at 15 mg/kg measured after 48 hrs by LC-MS analysis; type: ADME, organism-based; settings: in vivo
[22] = tested on: HEL; experiment: Antiproliferative activity against human HEL cells assessed as cell growth inhibition incubated for 96 hrs by MTT assay; type: functional, cell-based
[23] = Acute toxicity in BALB/c mouse assessed effect on body weight at 400 mg/kg, po; type: organism-based; settings: in vivo
[24] = tested on: THP-1; experiment: Antiproliferative activity against human THP-1 cells assessed as cell growth inhibition incubated for 96 hrs by MTT assay; type: functional, cell-based; settings: THP-1, 96 h
[25] = tested on: MV4-11; experiment: Antiproliferative activity against human MV4-11 cells assessed as cell growth inhibition incubated for 96 hrs by MTT assay; type: functional, cell-based; settings: MV4-11, 96 h
[26] = tested on: Mus musculus; experiment: Toxicity in NOD-SCID mouse xenografted with human Raji cells assessed as change in AST level at 40 mg/kg, po administered for 25 days; type: organism-based; settings: in vivo, 600 h, time 25 day
[27] = Half life in Sprague-Dawley rat at 15 mg/kg, po measured after 48 hrs by LC-MS analysis; type: ADME, organism-based; settings: in vivo
[28] = Plasma protein binding in rat at 0.1 uM incubated for 5 hrs by LC-MS analysis; type: ADME, cell-free; settings: read-out: PPB (converted)
[29] = tested on: Mus musculus; experiment: Toxicity in NOD-SCID mouse xenografted with human Raji cells assessed as change in ALT level at 40 mg/kg, po administered for 25 days; type: organism-based; settings: in vivo, 600 h, time 25 day
[30] = Microsomal stability in rat liver microsomes assessed as half life at 1 uM measured upto 120 mins in presence of NADPH by LC-MS analysis; type: ADME, Microsome
[31] = Acute toxicity in BALB/c mouse assessed as effect on spleen at 400 mg/kg, po measured on day 14 by H and E staining based assay; type: organism-based; settings: in vivo, 336 h, time 14 day
[32] = tested on: SUD4; experiment: Antiproliferative activity against human SU-DHL-4 cells assessed as cell growth inhibition incubated for 96 hrs by MTT assay; type: functional, cell-based; settings: SU-DHL-4, 96 h
[33] = AUC(0 to t) in Sprague-Dawley rat at 5 mg/kg, iv measured after 48 hrs by LC-MS analysis; type: ADME, organism-based; design: time 48 hrs, dose 5 mg/kg, route iv; settings: Sprague-Dawley, in vivo
[34] = Tmax in Sprague-Dawley rat at 15 mg/kg, po measured after 48 hrs by LC-MS analysis; type: ADME, organism-based; settings: in vivo
[35] = in vitro; settings: human, Caco-2; remark: listed apart in the source
Description: Efflux ratio of apparent permeability across basolateral to apical side over apical to basolateral side in human Caco-2 cells

[36] = tested on: Mus musculus; experiment: Toxicity in NOD-SCID mouse xenografted with human Raji cells assessed as mortality at 40 mg/kg, po administered for 25 days; type: organism-based; settings: in vivo, 600 h, time 25 day
[37] = AUC(0 to t) in Sprague-Dawley rat at 15 mg/kg, po measured after 48 hrs by LC-MS analysis; type: ADME, organism-based; design: dose 15 mg/kg, time 48 hrs, route po; settings: in vivo
[38] = Acute toxicity in BALB/c mouse assessed change in behavior at 400 mg/kg, po; type: organism-based; settings: in vivo
[39] = physchem; settings: aqueous
Description: Aqueous solubility of compound by UPLC method

[40] = Acute toxicity in BALB/c mouse assessed as effect on lung at 400 mg/kg, po measured on day 14 by H and E staining based assay; type: organism-based; settings: in vivo, 336 h, time 14 day
[41] = Acute toxicity in BALB/c mouse assessed effect on feeding at 400 mg/kg, po; type: organism-based; settings: in vivo
[42] = Clearance in Sprague-Dawley rat at 15 mg/kg, po measured after 48 hrs by LC-MS analysis; type: ADME, organism-based; settings: in vivo
[43] = tested on: HL-60; experiment: Antiproliferative activity against human HL-60 cells assessed as cell growth inhibition incubated for 96 hrs by MTT assay; type: functional, cell-based; settings: HL-60, 96 h
[44] = tested on: Raji; experiment: Antitumor activity against human Raji cells xenografted in NOD-SCID mouse assessed as tumor growth inhibition at 40 mg/kg, po administered for 25 days; type: functional; settings: 600 h, time 25 day, read-out: TGI
[45] = in vitro; settings: human, L02 cells and Raji cells
Description: Selectivity index, ratio of IC50 for human L02 cells to IC50 for human Raji cells

[46] = Plasma protein binding in rat at 1 uM incubated for 5 hrs by LC-MS analysis; type: ADME, cell-free; settings: read-out: PPB (converted)
[47] = in vitro; settings: human, Caco-2; remark: listed apart in the source
Description: Apparent permeability across apical to basolateral side in human Caco-2 cells incubated for 90 mins by LC-MS analysis

Compound: COc1cc(NC(=O)/C(C#N)=C(/C)O)c(F)cc1C(=O)Nc1c(F)cccc1Br
IC50 [1]: 29.5 nM
inhibition [2]: 78.5%

Compound: CCn1c(CO)nn(-c2cc(O[C@@H](C)C(F)(F)F)c(C(=O)Nc3c(F)cccc3Cl)cc2F)c1=O
IC50 [3]: 0.4 nM
Activity [4]: Toxic
IC50 [5]: 1.1 nM
inhibition in vivo at 1.5 mg/kg [6]: 79%

Compound: C/C(O)=C(\C#N)C(=O)Nc1cc(OC(C)C)c(C(=O)Nc2ccccc2Br)cc1F
IC50 [1]: 41.5 nM
inhibition [2]: 68.5%

Compound: C/C(O)=C(\C#N)C(=O)Nc1cc(O[C@@H](C)C(F)(F)F)c(C(=O)Nc2c(F)cccc2Cl)cc1F
half-life at 1 µM [7]: 2.31 h
half-life at 1 µM [8]: 2.46 h
IC50 [3]: 13.7 nM
IC50 [9]: 20 nM
Activity [10]: Non-Toxic
clearance [11]: 5 mL/min/kg
Papp B→A at 1.5 h [12]: 2.04 ×10⁻⁶ cm/s
IC50 [13]: 20 nM
IC50 [1]: 6.9 nM
Activity [14]: Non-Toxic
half-life [15]: 4.6 h
Activity [16]: Non-Toxic
Activity [17]: Non-Toxic
fraction unbound at 5 h, 10 µM [18]: 0.017
Activity [19]: Non-Toxic
Cmax [20]: 1320 ng/mL
bioavailability [21]: 32.8%
IC50 [22]: 20 nM
IC50 [5]: 511 nM
Activity [23]: Non-Toxic
IC50 [24]: 20 nM
IC50 [25]: 20 nM
Activity [26]: Non-Toxic
half-life [27]: 8.7 h
fraction unbound at 5 h, 0.1 µM [28]: 0.278
Activity [29]: Non-Toxic
half-life at 1 µM [30]: 0.77 h
Activity [31]: Non-Toxic
IC50 [32]: 20 nM
AUC(0-t) at 48 h [33]: 21500 ng·h/mL
Tmax [34]: 12 h
efflux ratio [35]: 7
Activity [36]: Non-Toxic
AUC(0-t) at 48 h [37]: 21100 ng·h/mL
Activity [38]: Non-Toxic
solubility [39]: 5200 µg/mL (≈ 10.3 mM)
Activity [40]: Non-Toxic
Activity [41]: Non-Toxic
CL/F [42]: 11.7 mL/min/kg
IC50 [43]: 20 nM
inhibition in vivo at 40 mg/kg [44]: 73.1%
inhibition [2]: 93.6%
selectivity ratio [45]: 37.2
fraction unbound at 5 h, 1 µM [46]: 0.057
Papp A→B at 1.5 h [47]: 0.29 ×10⁻⁶ cm/s

Compound: C/C(O)=C(\C#N)C(=O)Nc1cc(O[C@@H](C)C(F)(F)F)c(C(=O)Nc2c(Br)cccc2Br)cc1F
IC50 [3]: 35.1 nM
IC50 [1]: 7.3 nM
IC50 [5]: 426 nM
solubility [39]: 2100 µg/mL (≈ 3.45 mM)
inhibition [2]: 96.9%
selectivity ratio [45]: 13.1

Compound: C/C(O)=C(\C#N)C(=O)Nc1cc(OC(C)C)c(C(=O)Nc2ccc(F)c(Cl)c2)cc1F
inhibition [2]: 4.9%

Compound: C/C(O)=C(\C#N)C(=O)Nc1cc(OC(C)C)c(C(=O)Nc2ccccc2F)cc1F
inhibition [2]: 23%

Compound: CCOc1cc(NC(=O)/C(C#N)=C(/C)O)c(F)cc1C(=O)Nc1c(Cl)cccc1Cl
IC50 [3]: 573 nM
IC50 [1]: 17.4 nM
IC50 [5]: 2710 nM
inhibition [2]: 85.8%
selectivity ratio [45]: 4.7

Compound: C/C(O)=C(\C#N)C(=O)Nc1cc(OC(C)C)c(C(=O)Nc2cccc(F)c2)cc1F
inhibition [2]: 22.1%

Now from value to compound, other results behind:

inhibition [2]: 27.4%
Compound: COc1cc(NC(=O)/C(C#N)=C(/C)O)c(F)cc1C(=O)Nc1c(F)cccc1F

IC50 [3]: 13.9 nM
IC50 [1]: 6.8 nM
solubility [39]: 1700 µg/mL (≈ 3.1 mM)
inhibition [2]: 93.1%
Compound: C/C(O)=C(\C#N)C(=O)Nc1cc(O[C@@H](C)C(F)(F)F)c(C(=O)Nc2c(F)cccc2Br)cc1F
IC50 [5]: 526 nM
selectivity ratio [45]: 37.7

inhibition [2]: 7.5%
Compound: C/C(O)=C(\C#N)C(=O)Nc1cc(OC(C)C)c(C(=O)Nc2ccc(F)cc2)cc1F

IC50 [3]: 32.2 nM
IC50 [1]: 6.2 nM
solubility [39]: 2900 µg/mL (≈ 5.14 mM)
inhibition [2]: 94.4%
Compound: C/C(O)=C(\C#N)C(=O)Nc1cc(O[C@@H](C)C(F)(F)F)c(C(=O)Nc2c(Cl)cccc2Br)cc1F
IC50 [5]: 506 nM
selectivity ratio [45]: 15.8

IC50 [3]: 450 nM
IC50 [1]: 13.1 nM
inhibition [2]: 89.4%
Compound: C/C(O)=C(\C#N)C(=O)Nc1cc(OC(C)C)c(C(=O)Nc2c(Cl)cccc2Cl)cc1F
IC50 [5]: 2620 nM
selectivity ratio [45]: 5.8
